In US4443626A, “2,3-Dihydro-indene derivatives” (Hisamitsu Pharmaceutical Co., Inc., priority 1982, dated 1984):

What was measured:
mice = assay: Test for acute toxicity on mice; type: in vivo; conditions: one week after the administration, dead/tested
From the text: Test for acute toxicity on mice
Groups each consisting of 6 male mice of ddY strain weighing between 22 and 26 g were used in this experiment.
Suspensions of the test compounds and indomethacin as the control in an 0.5% aqueous solution of tragacanth were orally administered respectively to the test animals, after which the test animals had been observed for a week to find the lethality thereof.

passive Arthus reaction = assay: Effect on passive Arthus reaction in rats (hind paw swelling); type: in vivo, rat (Wistar strain, male); conditions: Rattus norvegicus, po, 3 h, read-out: Swelling inhibiting ratio; for inhibition in vivo at 100 mg/kg: 100 mg/kg orally, one hour before induction, hind paw volume measured three hours after induction, anti BSA rabbit serum / BSA, relative to control group
Procedure: Effect on passive Arthus reaction in rats
The rats which had been fasted for 18 hours were sensitized by injecting 0.3 ml of a 10% solution of an anti BSA rabbit serum (precipitation titer, 32 times) to them at the tail vein. […] On the other hand, only the vehicle was administered to the remainder of the test animals. [formula]

SMILES	Lethality (mice; 2,000 mg/kg orally)	inhibition in vivo at 100 mg/kg (passive Arthus reaction)	also measured
O=C(O)CCC1Cc2ccc(F)cc2C1=O (stereo not shown) [Example 6, 6-fluoro-1-oxo-2,3-dihydro-2-indene propionic acid]	2/6	39.4%	Lethality (mice; 500 mg/kg orally): 0/6; Lethality (mice; 1,000 mg/kg orally): 0/6
O=C(O)CCCC1Cc2c(Cl)cc(Cl)cc2C1=O (stereo not shown) [Example 13, 4,6-dichloro-1-oxo-2,3-dihydro-2-indene butyric acid]	1/6	22.5%	
COc1ccc2c(c1)c(CC(=O)O)c(C)n2C(=O)c1ccc(Cl)cc1 [Indomethacin, indomethacin, reference compound]			Lethality (mice; 50 mg/kg orally): 6/6; inhibition in vivo at 5 mg/kg (passive Arthus reaction): 8.1%
O=C(O)CCCC1Cc2c(Cl)cccc2C1=O (stereo not shown) [Example 11, 4-chloro-1-oxo-2,3-dihydro-2-indene butyric acid]		13.9%	
O=C(O)CCCC1Cc2ccc(F)cc2C1=O (stereo not shown) [Example 1, 6-fluoro-1-oxo-2,3-dihydro-2-indene butyric acid]	1/6	26.7%	
O=C(O)CCC1Cc2cc(Cl)ccc2C1=O (stereo not shown) [Example 8, 5-chloro-1-oxo-2,3-dihydro-2-indene propionic acid]		17.5%	
O=C(O)CCC1Cc2c(F)cccc2C1=O (stereo not shown) [Example 5, 4-fluoro-1-oxo-2,3-dihydro-2-indene propionic acid]	2/6	41.7%	
O=C(O)CCC1Cc2ccc(Cl)cc2C1=O (stereo not shown) [Example 3, 6-chloro-1-oxo-2,3-dihydro-2-indene propionic acid]		13.7%	
O=C(O)CCCCC1Cc2c(Cl)cccc2C1=O (stereo not shown) [Example 14, 4-chloro-1-oxo-2,3-dihydro-2-indene valeric acid]	0/6	18.6%	
O=C(O)CCCCC1Cc2ccc(Cl)cc2C1=O (stereo not shown) [Example 16, 6-chloro-1-oxo-2,3-dihydro-2-indene valeric acid]		16.2%	
O=C(O)CCCCC1Cc2cc(Cl)ccc2C1=O (stereo not shown) [Example 15, 5-chloro-1-oxo-2,3-dihydro-2-indene valeric acid]	0/6	35.3%	
O=C(O)CCCC1Cc2ccc(Cl)cc2C1=O (stereo not shown) [Example 2, 6-chloro-1-oxo-2,3-dihydro-2-indene butyric acid]	2/6	37.7%	
